Experiments:
PC-3 = experiment: Cell colony formation assay, PC-3 cells; assay type: cell-based, human; settings: 72 hours drug exposure
Description: (§1) This example provides directions for growing cells and testing compounds of the invention for their effect on the growth of the cells. All cells were purchased from DCIDC Tumor Repository, NCI, NIH.
(§2) Four hundred cells (HCT 116, PC-3, NCI/ADR-RES: human breast cancer cells) or five hundred cells (VM46) were plated in 60 mm Petri dishes containing 2.7 ml of medium (modified McCoy's 5a medium) containing 10% fetal bovine serum and 100 units/ml penicillin and 100 mg/ml streptomycin. The cells were incubated in a CO2 incubator at 37° C. for 5 hours for attachment to the bottom of Petri dishes. Drugs were made fresh in medium at ten times the final concentration, and then 0.3 ml of this stock solution was added to the 2.7 ml of medium in the dish. The cells were then incubated with drugs for 72 hours at 37° C. At the end of the incubation the drug-containing media were decanted, the dishes were rinsed with 4 ml of Hank's Balance Salt Solution (HBSS), 5 ml of fresh medium was added, and the dishes were returned to the incubator for colony formation. The cell colonies were counted using colony counter after incubation for 7 days for HCT116 cells and PC-3 cells and 8 days for VM46 cells, respectively.
(§3) Values of ID50 (the drug concentration producing 50% inhibition of colony formation) may be determined for each tested compound. The directions described in this example may be used in other cells, such as DU-145.

[1] = system: MTG-B mouse mammary Adenocarcinoma; experiment: In vivo efficacy in C3H/HeJ mice bearing MTG-B tumors; settings: for T (Surviving days after treatment of MTG-B mouse mammary Adenocarcinoma In C3H/Hej mice): i.p., control mice survived 6 days; for T/C %: surviving days treated / surviving days control x 100%, control 6 days; for CD/Taxol: ratio of extra days of survival with compound to extra days of survival with taxol, each compared to control
Description: This example provides directions for performing in vivo efficacy tests of the compounds of the invention on C3H/HeJ mice bearing MTG-B tumors.
Studies on the compounds of this invention were performed on C3H/HeJ mice bearing […] tumors. […] Treatment was initiated at that time, with the first day of treatment designated as day 0 for calculation and plots. The mice were injected i.p. with thee drug dose levels (⅓, ½, 1×MTD) using both a single injection and the schedule of Q2D×3 (every 2 days for a total of 3 treatments at ⅓ MTD). Control groups of mice bearing 8 mm diameter tumors were treated with vehicle alone. […] When a tumor reached 1.5 g, the mouse bearing the tumor was euthanized. Surviving days measured from day 0 for mice treated with anticancer drugs (T) and surviving days measured from day 0 for control mice (C) were recorded. Tumor growth inhibition values (T/C %) were calculated using the formula T/C %=(surviving days of mice treated with an anticancer drug T/surviving days of control mice C)×100%, as shown in Table II.
The final right-hand column in Table II provides a ratio of the extra days of survival of mice treated with the compounds of the invention (compared to control) to the extra days of survival of mice treated with taxol (compared to control).

C3H/HeJ mice = settings: maximum tolerated dose at day 40, C3H/HeJ mice
Description: This example provides directions for performing in vivo toxicity tests of the compounds of the invention on C3H/HeJ mice.
Acute toxicities of the compounds of this invention are evaluated on C3H/HeJ mice (body weight 18-22 g). The MTD40 (maximum tolerated dose at day 40) values were determined by the standard procedure described by Gad and Chengelis (see, for example, “Acute Toxicology Testing,” 2nd Ed., Shayne O. Gad and Christopher P. Chengelis, pp. 186-195 (Academic Press)). In the consecutive type studies, 2 mice were dosed at low and moderate doses of 40 and 100 mg/kg. If no severe and irreversible toxicity (euthanasia is required) occurs at these doses, a new pair of animals was initiated at 180 mg/kg, which is 1.8 times higher than 100 mg/kg. Sequential dosages (about 3 doses on 3 pairs of animals, i.e. 2 mice for each drug dose) were increased by a factor of 1.8 until severe and irreversible toxicity (euthanasia is required) occurred. Then another pair of animals was initiated at the highest nonlethal dosage, and successive dosages were increased by a factor of 1.15. The result of this exercise was two dosages, one apparently nonlethal and the other lethal if severe and irreversible toxicity occurs and euthanasia is required, separated by a factor of 1.15. Six mice were dosed at each dosage. If no severe and irreversible toxicity occurred at the lower dosage and at least one with severe and irreversible toxicity occurred at the higher dose, then the lower dose was considered to be the MTD. The compounds of this invention were administered to C3H/HeJ mice by intraperitoneal injection. Drug toxicity was evaluated on mice checked daily for 45 days.

VM46 = experiment: Cell colony formation assay, VM46 cells; assay type: cell-based; settings: 72 hours drug exposure
Description: as §1, §2, §3

HCT116 = experiment: Cell colony formation assay, HCT116 cells; assay type: cell-based, human; settings: 72 hours drug exposure
Description: as §1
as §2, with “The” for “Four hundred cells (HCT 116, PC-3, NCI/ADR-RES: human breast cancer cells) or five hundred cells (VM46) were plated in 60 mm Petri dishes containing 2.7 ml of medium (modified McCoy's 5a medium) containing 10% fetal bovine serum and 100 units/ml penicillin and 100 mg/ml streptomycin. The”

SMILES | In vitro efficacy: Survival (%) of cells line PC-3 (PC-3; 1 nM) | In vitro efficacy: Survival (%) of cells line PC-3 (PC-3; 5 nM) | T (Surviving days after treatment of MTG-B mouse mammary Adenocarcinoma In C3H/Hej mice) [1] | T/C % [1] | In Vivo Toxicity MTD40 (ip, mg/kg) in C3H/Hej Mice (C3H/HeJ mice) | In vitro efficacy: Survival (%) of cells line VM46 (VM46; 1 nM) | In vitro efficacy: Survival (%) of cells line VM46 (VM46; 10 nM) | In Vitro Efficacy: Survival (%) of HCT116 (HCT116; 1 nM) | In Vitro Efficacy: Survival (%) of HCT116 (HCT116; 10 nM) | In Vitro Efficacy: Survival (%) of HCT116 (HCT116; 100 nM) | CD/Taxol [1]
CC(=O)O[C@H]1C(=O)[C@@]2(C)[C@H]([C@H](OC(=O)c3ccccc3)[C@]3(O)C[C@H](OC(=O)[C@H](O)[C@@H](NC(=O)c4ccccc4)c4ccccc4)C(C)=C1C3(C)C)[C@]1(OC(C)=O)CO[C@@H]1C[C@@H]2O [Taxol, reference compound] | 82.80% | 41.36% | 9 days | 150% | 40.6 mg/kg | 80.59% | 70.82% | 86.40% | 0% | 0% | 
CCC1(OC(=O)COc2ccc(F)cc2)C(=O)OCc2c1cc1n(c2=O)Cc2cc3ccccc3nc2-1 (centres unmarked) [Example 000417, camptothecin-20-O-4-fluorophenoxyacetate] | 97.65% | 61.85% | 18 days | 300% | >150 mg/kg | 83.50% | 0% | 100% | 0% | 0% | 4
CCC1(OC(=O)COc2cccc(Cl)c2Cl)C(=O)OCc2c1cc1n(c2=O)Cc2cc3ccccc3nc2-1 (centres unmarked) [Example 000412, Camptothecin-20-O-ester of 2,3-dichlorophenoxyacetic acid] | 83.00% | 8.68% | 17 days | 283% | 100 mg/kg | 50.72% | 0% | 81.36% | 0% | 0% | 3.7
CCC1(OC(=O)COc2ccc(I)cc2)C(=O)OCc2c1cc1n(c2=O)Cc2cc3ccccc3nc2-1 (centres unmarked) [Example 000413, Camptothecin-20-Oester of 4-iodophenoxyacetic acid] | 89.51% | 33.64% | 18 days | 300% | >150 mg/kg | 73.61% | 0% | 87.62% | 0% | 0% | 4
CC[C@@]1(OC(=O)CO[C@@H]2C[C@H](C)CC[C@H]2C(C)C)C(=O)OCc2c1cc1n(c2=O)Cc2cc3ccccc3nc2-1 [Example 0002031, Camptothecin-20-O-ester of (−)-menthoxyacetic acid] | 100% | 69.44% | 12 days | 200% | 100 mg/kg | 74.84% | 0% | 100% | 0% | 0% | 2.0
CCC1(OC(=O)COc2ccc3ccccc3c2)C(=O)OCc2c1cc1n(c2=O)Cc2cc3ccccc3nc2-1 (centres unmarked) [Example 000224, Camptothecin-20-O-ester of 2-napthoxyacetic acid] | 87.34% | 37.98% | 7 days | 117% | >150 mg/kg | 62.69% | 0% | 100% | 0% | 0% | .3
CCC1(OC(=O)COc2ccccc2[N+](=O)[O-])C(=O)OCc2c1cc1n(c2=O)Cc2cc3ccccc3nc2-1 (centres unmarked) [Example 000411, Camptothecin-20-O-ester of 2-nitrophenoxyacetic acid] | 90.09% | 33.09% | 8 days | 133% | >150 mg/kg | 76.87% | 0% | 95.13% | 0% | 0% | .7
CCC1(OC(=O)COc2ccc3c(c2)OCO3)C(=O)OCc2c1cc1n(c2=O)Cc2cc3ccccc3nc2-1 (centres unmarked) [Example 000419, Camptothecin-20-O-ester of 3,4-methylenedioxyphenoxyacetic acid] | 88.43% | 43.94% | 12 days | 200% | 45 mg/kg | 75.46% | 0% | 100% | 0% | 0% | 2.0
CC[C@@]1(OC(=O)COc2ccc(Br)cc2)C(=O)OCc2c1cc1n(c2=O)Cc2cc3ccccc3nc2-1 [Example 000315, Camptothecin-20-Oester of 4-bromophenoxyacetic acid] | 87.38% | 22.24% | 18 days | 300% | >150 mg/kg | 64.37% | 0% | 100% | 0% | 0% | 4
